Reference: patent publication US8383662B2, “Bicyclic heteroaryl compounds” (National Chiao Tung University, priority 2006, dated 2013)

Assays:
4T1^LUC+ cells [1] = experiment: Effects on tumor recurrence and survival rate; format: in vivo, BALB/c mice; details: 50 mg/kg i.p. once daily; for overall survival life span: compared with vehicle group, FIG. 4; for luminescent signal intensity after tumor resection (tumor recurrence): sustain treatment vs stop treatment, FIG. 3
Experimental: 4T1^LUC+ cells obtained by the method described in Example 188 were implanted into the right inguinal mammary fat pads of 6 to 8-week old female BALB/c mice (1×10^5 cells in 100 μL PBS/mouse). After 14 days of tumor cell implantation, a single dose of 50 mg/kg body weight of a test compound or vehicle (PBS) was administered intraperitoneally once daily for three weeks. Compounds 2, 56, and 91 were tested in this assay. Sorafenib (Nexavar®) and sunitinib (Sutent®) were also used as reference compounds.
At the end of three-week treatment, the orthotopically grown tumors were surgically removed from the six groups of mice (i.e., 5 groups each treated with a test compound and 1 vehicle group). Then each of the six groups (i.e., 5 groups each treated with a test compound and 1 vehicle group) were divided into two subgroups, one with no further drug treatment (denoted as “stop treatment” in FIG. 3) and the other with continued drug treatment for 35 days (denoted as the “sustain treatment” in FIG. 3).
Bioluminescent data were collected in a manner similar to that described in Example 189 above at the end of day 35 after tumor resection.

4T1^LUC+ cells [2] = experiment: In vivo assay on inhibiting spontaneous metastasis; parameters: species or system BALB/c mice; details: 50 mg/kg i.p. once daily; for luminescent signal intensity (metastatic tumor burden): end of the fourth week after compound treatment (sixth week after implantation), FIG. 2
Experimental: To investigate the effect of test compounds on distant spontaneous metastasis generated by the tumor cells, 4T1^LUC+ cells obtained by the method described in Example 188 were implanted into the right inguinal mammary fat pads of 6-week old BALB/c mice (1×10^5 cells in 100 μL PBS/mouse). After 14 days of tumor cell implantation, a single dose of 50 mg/kg body weight of a test compound or vehicle was administered intraperitoneally once daily. Compounds 2, 56, and 91 were used in this assay. Sorafenib (Nexavar®) and sunitinib (Sutent®) were also used as reference compounds.
A total of 36 mice, six for each of the six groups (i.e., 5 groups treated with test compounds and 1 vehicle group), were imaged once weekly for a period of 6 weeks after tumor cell implantation via bioluminescence imaging.
In vivo bioluminescence imaging was conducted on a cryogenically cooled IVIS™ system (Xenogen Corp., Alameda, Calif.) coupled to a data-acquisition PC running Living Image version 3.1 software (Xenogen Corp.). Before imaging, animals were anesthetized in a plastic chamber filled with 2% isofluorane/air mixture and 150 mg/mL of luciferin (potassium salt, Xenogen Corp.) and normal saline was injected (i.p.) into each mouse at a dose of 150 mg/kg body weight. This dose and route of administration has been previously shown to be optimal for studies in rodents when images were acquired between 10 and 20 minutes post-luciferin administration (Contag C H et al. 1997 Photochem Photobiol.; 66:523-531). During image acquisition, isofluorane anesthesia was maintained using a nose cone delivery system and animal body temperature was regulated using a digitally thermostated bed integrated within the IVIS™ system (Xenogen Corp., Alameda, Calif.). A gray scale body surface image was collected in the chamber under dim illumination, followed by acquisition and overlay of the pseudocolor image representing the spatial distribution of detected photon counts emerging from active luciferase within the animal. An integration time of 1 minute was used for luminescent image acquisition.
The average of the in vivo bioluminescence intensities measured on the 14th day post tumor cell implantation but before treatment with test compounds severed as a baseline, corresponding to the metastatic tumor burden of the vehicle group, as shown in FIG. 2.

VEGF receptor 3 = target: T1, VEGF receptor 3 (Homo sapiens, UniProt P35916); experiment: KIRA-ELISA assay (VEGFR3 phosphotyrosine after VEGF-C stimulation); format: cell-based; details: NCI-H928, H928 cells stimulated by recombinant VEGF-C, read-out: inhibition percentage
T1 construct: lyse the cells and solubilize the VEGFR3; endogenous in cells; host or cells: H928 cells
Experimental: This assay was performed in two microtiter plates. The first plate was used to culture an adherent cell line expressing the VEGF receptor 3 and to stimulate the receptor with a test compound. The second plate was used to capture the solubilized membrane receptor, which was then probed for phosphotyrosine content with phosphotyrosine-specific antibody.
Specifically, H928 cells (2×10^5) in 100 μl medium were added to each well in a flat-bottom 24-well culture plate and cultured overnight at 37° C. in 5% CO2. After the supernatants were removed, the cells were serum-starved for 24 hours. A medium containing a test compound was added into each well and the cell culture was incubated for 30 minutes before it was stimulated by recombinant VEGF-C for 15 minutes. After the supernatants were removed, 100 μl of a lysis buffer were added into each well to lyse the cells and solubilize the VEGFR3. […] The absorbance at 450 nm and the absorbance at a reference wavelength of 650 nm (A450/650) were measured using an ELISA reader.
The inhibition efficacy of each test compound is expressed as an inhibition percentage calculated according to the following formula: 1−[(C−A)/(B−A)]. In this formula, A is the basal amount of phosphotyrosine detected in a blank control, B is the amount of phosphotyrosine detected with VEGF-C only, and C is the amount of phosphotyrosine detected with a test compound and VEGF-C.

[3] = system: 4T1 cells / 4T1^luc+ cells; experiment: Effects on tumor self-seeding; format: in vivo, BALB/c mice; details: 50 mg/kg orally once daily
Experimental: Unlabeled parental 4T1 cells were implanted into a mammary gland of 6 to 8-week old female BALB/c mice (1×10^5 cells in 100 μL PBS/mouse). After 14 days of tumor cell implantation, a single dose of 50 mg/kg body weight of a test compound or vehicle (PBS) was administered orally once daily for 2 days. Compound 56 was tested in this assay. Sunitinib (Sutent®) was used as a reference compound. Then 4T1^luc+ cells (1×10^5 cells in 100 μL PBS/mouse) were injected into the circulatory system of the mice by intracardiac injection. The mice were then administered orally with a single dose of 50 mg/kg body weight of a test compound or vehicle (PBS) once daily for 2 days.
Bioluminescent data were collected in a manner similar to that described in Example 189 above.

[4] = system: 4T1^LUC+ cells (murine 4T1 breast cancer); experiment: In vivo assay on tumor growth inhibition; parameters: species or system BALB/c mice
Experimental: Compounds were tested for their efficacy in inhibiting tumor growth on murine tumor xenografts.
Murine 4T1 breast cancer cells (purchased from the American Type Culture Collection) were cultured to sub confluence in RPMI medium supplemented with 10% fetal bovine serum (GIBCO Invitrogen Corp.) at 37° C., 90% humidity and 5% CO2. The 4T1^LUC+ cells were established by the stable transfection of the firefly luciferase gene (pGL3-control, Promega Corporation) to 4T1 cells using LipofectAMINE PLUS Reagent (Life Technologies, Inc., Grand Island, N.Y.) for quantitative assessment of tumor burden in visceral organs. pcDNA3 vector (Invitrogen Co., Carlsbad, Calif.) was cotransfected for the selection by G418 (Sigma). The resulting 4T1^LUC+ colonies were isolated and cultured independently and the best expressing lines were identified based on the level of bioluminescent activity in the presence of luciferin in living cells. Highly bioluminescent clone was selected for further studies. […]
The length (i.e., the biggest diameter) and width (i.e., the smallest diameter) of the tumor was measured every 3.5 days by using a Vernier caliper. The tumor volume was then calculated as follows: volume=A×B^2×0.52, where A is the length of the tumor and B is the width of the tumor.

T1 sequence (P35916 25-1363): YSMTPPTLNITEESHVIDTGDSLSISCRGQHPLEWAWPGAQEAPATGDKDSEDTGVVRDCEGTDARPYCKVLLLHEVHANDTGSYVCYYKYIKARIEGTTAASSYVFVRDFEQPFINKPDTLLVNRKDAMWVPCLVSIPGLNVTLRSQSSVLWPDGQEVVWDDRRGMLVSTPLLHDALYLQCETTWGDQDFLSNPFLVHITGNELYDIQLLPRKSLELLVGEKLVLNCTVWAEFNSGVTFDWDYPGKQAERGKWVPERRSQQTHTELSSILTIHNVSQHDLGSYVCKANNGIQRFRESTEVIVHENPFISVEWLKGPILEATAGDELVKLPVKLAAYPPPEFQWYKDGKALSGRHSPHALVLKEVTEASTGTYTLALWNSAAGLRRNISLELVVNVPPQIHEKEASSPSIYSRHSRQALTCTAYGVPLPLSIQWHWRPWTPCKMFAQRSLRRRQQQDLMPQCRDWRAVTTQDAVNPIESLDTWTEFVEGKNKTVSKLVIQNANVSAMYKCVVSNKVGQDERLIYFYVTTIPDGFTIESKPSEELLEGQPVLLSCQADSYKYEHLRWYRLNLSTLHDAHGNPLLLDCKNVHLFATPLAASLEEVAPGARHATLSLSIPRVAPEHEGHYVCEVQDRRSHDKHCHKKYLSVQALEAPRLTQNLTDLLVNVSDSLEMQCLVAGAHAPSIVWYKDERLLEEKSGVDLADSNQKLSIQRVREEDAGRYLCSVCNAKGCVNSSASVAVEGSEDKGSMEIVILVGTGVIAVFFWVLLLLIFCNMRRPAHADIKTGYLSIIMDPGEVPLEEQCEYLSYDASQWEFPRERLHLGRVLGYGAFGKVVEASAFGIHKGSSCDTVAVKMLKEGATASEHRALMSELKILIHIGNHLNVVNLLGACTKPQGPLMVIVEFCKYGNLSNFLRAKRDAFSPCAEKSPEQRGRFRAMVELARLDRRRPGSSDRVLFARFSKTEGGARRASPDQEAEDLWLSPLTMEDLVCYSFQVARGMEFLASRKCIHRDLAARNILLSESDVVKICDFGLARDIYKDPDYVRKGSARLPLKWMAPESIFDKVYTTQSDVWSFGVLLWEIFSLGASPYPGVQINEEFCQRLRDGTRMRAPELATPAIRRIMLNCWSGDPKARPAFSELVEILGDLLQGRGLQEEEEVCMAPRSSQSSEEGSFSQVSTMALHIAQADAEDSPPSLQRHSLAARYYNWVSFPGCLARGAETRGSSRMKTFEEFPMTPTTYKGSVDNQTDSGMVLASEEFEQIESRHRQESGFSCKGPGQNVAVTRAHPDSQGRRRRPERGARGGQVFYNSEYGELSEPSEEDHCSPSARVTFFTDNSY

| Compound | overall survival life span (4T1^LUC+ cells [1]) | luminescent signal intensity after tumor resection (tumor recurrence) (4T1^LUC+ cells [1]; day 35 after tumor resection) | inhibition of spontaneous metastasis compared with Sorafenib and sunitinib (4T1^LUC+ cells [2]) | luminescent signal intensity (metastatic tumor burden) (4T1^LUC+ cells [2]) | inhibition at 1 µM (VEGF receptor 3) | ability in inhibiting tumor self-seeding compared with Sutent [3] | bioluminescence from the thoracic cavity ([3]; day 7 post the second 2-day drug treatment, compared with vehicle group, FIGS. 5A and 5B) | bioluminescence from the abdominal cavity compared with Sutent-treated group ([3]; day 14 post the second 2-day drug treatment) | bioluminescence from the abdominal cavity ([3]; day 14 post the second 2-day drug treatment, compared with vehicle group) | tumor recurrence reduction compared with sunitinib (4T1^LUC+ cells [1]; day 35 after tumor resection) | tumor growth inhibition (tumor volume) ([4]; 50 mg/kg intraperitoneally once daily from day 14 after implantation, FIG. 1) | survival rate ([4]; 50 mg/kg intraperitoneally once daily, compared with Sorafenib-treated mice) |
| --- | --- | --- | --- | --- | --- | --- | --- | --- | --- | --- | --- | --- |
| COC(=O)c1ccc2c(c1)nc(-c1ccc3cn(CCC(c4ccccc4)c4ccccc4)nc3c1)n2CCC1=CCCCC1 [Compound 2] | increased the overall survival life span of the treated mice as compared with those in the vehicle group | lower luminescent signal intensity as compared with the corresponding group without continuous treatment | comparable or superior to the commercial drugs | significant lower luminescent signal intensity as compared with the vehicle group | ~65% | – | – | – | – | – | – | – |
| CCCCc1nc2cccc(-c3nc4cc(C(=O)OC)ccc4n3CC(C)C)c2n1CCCC [Compound 56] | increased the overall survival life span of the treated mice as compared with those in the vehicle group | lower luminescent signal intensity as compared with the corresponding group without continuous treatment | comparable or superior to the commercial drugs | did not exhibit any detectable luminescent signal | – | comparable or even superior ability in inhibiting tumor self-seeding to that of Sutent | much weaker bioluminescence from the thoracic cavity | weaker bioluminescence form the abdominal cavity | much weaker bioluminescence form the abdominal cavity | reduced tumor recurrence to a degree comparable to that of sunitinib | inhibited tumor growth almost as effectively as Sutent and Sorafenib | higher survival rate than those treated with Sorafenib |
| CCCCc1nc2cccc(-c3nc4cc(C(=O)O)ccc4n3CC(C)C)c2n1CCCC [Compound 91] | increased the overall survival life span of the treated mice as compared with those in the vehicle group | lower luminescent signal intensity as compared with the corresponding group without continuous treatment | comparable or superior to the commercial drugs | significant lower luminescent signal intensity as compared with the vehicle group | – | – | – | – | – | – | – | – |
